Target: AAK1 (full length human) in HEK293F cells (Homo sapiens, UniProt Q2M2I8)
Assay: HEK293F Cell-Based Assay (phospho-mu2 Western blot)
Conditions: 3 hours, IC50 ranges
Description: HEK293F cells were cultured in media containing DMEM (Gibco, cat. #11965), 10% FBS (SAFC Biosciences, cat. #12103C), 1×GPS (glutamine, penicillin and streptomycin). On day one, cells were plated on a 10 cm dish so that they are ˜80% confluent at time of transfection. Roughly 12 million cells were in a 10 cm dish at time of transfection. On day two, each dish was transfected with 48 ug DNA and 144 ul Lipofectamine 2000 (Invitrogen, cat. #11668-019). The DNA was comprised of a mixture (per 10 cm dish) containing 3 ug AAK1/HA/pIRES (full length human, NCBI accession no. NP_055726.2), 45 μg Flag/AP2MI/pcDNA (full length human), and 1.5 ml OPTI-MEM. The Lipofectamine 2000 is made up of a mixture (per 10 cm dish) containing 144 μl Lipofectamine 2000 and 1.5 ml OPTI-MEM. Each mixture was transferred to individual 15 ml tubes and incubated at RT for 5 minutes, and then the two mixes were combined and incubated at RT for 20 minutes. Growth media was then aspirated from each 10 cm plate and replaced with 10 ml of DMEM+10% FBS (no GPS). Finally, 3 ml DNA/Lipofectamine mix was added to each 10 cm dish and mix gently followed by incubate of plate overnight at 37° C. and 5% CO2.
On day three, compounds were diluted in 100% DMSO at 1000× final concentration, followed by 3-fold serial dilutions for a total of 5 concentrations tested. Four compounds were tested per 10 cm dish. One ul of each compound dilution was then pipetted into a deep-well, 96-well plate, followed by addition of 500 μl DMEM+0.5% FBS into each well for a 2× final concentration of each compound. Cells were resuspended in a 10 cm dish by simple pipetting (HEK293 cells come off the plate that easy at this point) and then transferred to a 50 ml conical tube and pelleted by centrifugation at 1000 rpm for 5 min. Cell pellets were then resuspended in 2.75 ml DMEM+0.5% FBS per 10 cm dish and 100 μl of cell suspension transferred into each well of 96-well TC plate. Finally, 100 μl of 2× compound diluted in DMEM+0.5% FBS was then added into wells containing cell suspension for a 1× final concentration. Plates were then incubated at 37° C. and 5% CO2 for 3 hours followed by transferring of cell suspensions from each well into 12-tube PCR strips. The PCR strips were spun in a tip rack at 1000 rpm for 5 minutes to pellet cells and media was then removed by pipetting without disturbing the cell pellet.
To prepare for Western Blot analysis, cell pellets were resuspend in 40 ul 1× LDS-PAGE sample buffer (Invitrogen, cat. # NP0008)+2× Halt phophatase and protease inhibitor cocktail (Thermo Scientific, cat. #1861284), followed by sonicating each with microtip sonicator set at 5 for 8-10 seconds. Five ul of 10× NuPage Sample Reducing Agent (with 50 mM DTT) was to each sample followed by heat denaturing at 70 C for 10 min on PCR machine. A total of 10 μl per sample was loaded into each lane of a 4-20% Tris-Glycine Criterion 26-well gel (Biorad, cat. #345-0034) for the phospho-mu2 blot and 10 μl per lane in a 4-12% Bis-Tris (+MES buffer) NuPAGE 26-well gel (Invitrogen, cat. # WG1403BX10) for the mu2 blot. For controls, 2 ng of phospho-mu2 or 20 ng mu2/Flag proteins were loaded in the last well of each gel. After SDS-PAGE, samples on each gel were transferred to PVDF membrane using an iBlot and membranes were blocked for one hour in TBST+5% milk, followed by wash 3× for 5-10 min with TBST. Criterion gels were probed with rabbit anti-phospho-mu2 (1:5000; a rabbit polyclonal antibody produced by New England Peptide and affinity purified at Lexicon) in TBST+5% BSA, whereas, NuPAGE gels were probed with mouse anti-Flag (1:500; Sigma, cat. # F1804) in TBST+5% milk, and these primary antibodies were incubated overnight at 4° C. on a rocker. […]

Chain of AAK1 (full length human) in HEK293F cells (Q2M2I8 1-822 limits assumed): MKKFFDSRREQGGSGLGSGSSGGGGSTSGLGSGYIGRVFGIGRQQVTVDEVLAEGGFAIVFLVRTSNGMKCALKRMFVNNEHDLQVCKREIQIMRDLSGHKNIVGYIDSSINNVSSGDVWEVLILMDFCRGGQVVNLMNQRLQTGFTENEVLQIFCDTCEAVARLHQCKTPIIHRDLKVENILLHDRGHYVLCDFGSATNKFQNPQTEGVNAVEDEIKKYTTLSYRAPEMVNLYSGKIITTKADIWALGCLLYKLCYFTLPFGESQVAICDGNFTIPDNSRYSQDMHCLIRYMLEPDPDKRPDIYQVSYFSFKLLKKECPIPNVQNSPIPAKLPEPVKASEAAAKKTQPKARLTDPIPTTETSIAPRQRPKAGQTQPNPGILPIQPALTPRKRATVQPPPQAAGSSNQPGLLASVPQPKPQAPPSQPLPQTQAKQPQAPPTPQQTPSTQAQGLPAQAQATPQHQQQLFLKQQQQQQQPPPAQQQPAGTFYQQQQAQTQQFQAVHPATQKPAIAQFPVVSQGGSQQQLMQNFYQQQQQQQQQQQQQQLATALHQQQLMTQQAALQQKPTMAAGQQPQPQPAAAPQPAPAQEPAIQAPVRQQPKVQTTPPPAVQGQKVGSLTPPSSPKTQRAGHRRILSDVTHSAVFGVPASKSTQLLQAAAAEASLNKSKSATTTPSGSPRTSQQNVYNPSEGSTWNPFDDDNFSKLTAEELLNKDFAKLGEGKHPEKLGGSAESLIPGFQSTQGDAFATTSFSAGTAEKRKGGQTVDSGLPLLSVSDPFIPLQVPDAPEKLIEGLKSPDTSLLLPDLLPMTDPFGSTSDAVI

**Q.** `COC(=O)Nc1cc2c(cn1)COc1cc(OCC(C)(N)CC(C)C)ccc1-2` (racemic) [Example 60, methyl (8-((2-amino-2,4-dimethylpentyl)oxy)-5H-chromeno[3,4-c]pyridin-2-yl)carbamate] was tested. Which IC50 did it give?
**A.** Its IC50 is 1 to 10 nM.

**Q.** How did the IC50 turn out when `CC(=O)Nc1cc2c(cn1)COc1c-2ccc(OCC(C)(N)CC(C)C)c1OC(F)F` (racemic) [Example 65, N-(8-((2-amino-2,4-dimethylpentyl)oxy)-7-(difluoromethoxy)-5H-chromeno[3,4-c]pyridin-2-yl)acetamide] was run?
**A.** Its IC50 is < 1 nM.

**Q.** `COc1c(OCC(C)(N)CC(C)C)ccc2c1OCc1cnc(NC(C)=O)cc1-2` (racemic) [Example 66, N-(8-((2-amino-2,4-dimethylpentyl)oxy)-7-methoxy-5H-chromeno[3,4-c]pyridin-2-yl)acetamide] was tested. Which IC50 did it give?
**A.** The IC50 was 1 to 10 nM.

**Q.** `COC(=O)Nc1cc2c(cn1)COc1cc(OCC(C)(N)CC(C)C)ccc1-2` (stereo not drawn) [Example 70, methyl (8-((2-amino-2,4-dimethylpentyl)oxy)-5H-chromeno[3,4-c]pyridin-2-yl)carbamate] was tested. Which IC50 did it give?
**A.** The IC50 was 1 to 10 nM.

Target: T1, GST-Xa-hAAK1 (Homo sapiens, UniProt Q2M2I8)
T1 construct: made in house
T1 sequence (Q2M2I8 whole entry): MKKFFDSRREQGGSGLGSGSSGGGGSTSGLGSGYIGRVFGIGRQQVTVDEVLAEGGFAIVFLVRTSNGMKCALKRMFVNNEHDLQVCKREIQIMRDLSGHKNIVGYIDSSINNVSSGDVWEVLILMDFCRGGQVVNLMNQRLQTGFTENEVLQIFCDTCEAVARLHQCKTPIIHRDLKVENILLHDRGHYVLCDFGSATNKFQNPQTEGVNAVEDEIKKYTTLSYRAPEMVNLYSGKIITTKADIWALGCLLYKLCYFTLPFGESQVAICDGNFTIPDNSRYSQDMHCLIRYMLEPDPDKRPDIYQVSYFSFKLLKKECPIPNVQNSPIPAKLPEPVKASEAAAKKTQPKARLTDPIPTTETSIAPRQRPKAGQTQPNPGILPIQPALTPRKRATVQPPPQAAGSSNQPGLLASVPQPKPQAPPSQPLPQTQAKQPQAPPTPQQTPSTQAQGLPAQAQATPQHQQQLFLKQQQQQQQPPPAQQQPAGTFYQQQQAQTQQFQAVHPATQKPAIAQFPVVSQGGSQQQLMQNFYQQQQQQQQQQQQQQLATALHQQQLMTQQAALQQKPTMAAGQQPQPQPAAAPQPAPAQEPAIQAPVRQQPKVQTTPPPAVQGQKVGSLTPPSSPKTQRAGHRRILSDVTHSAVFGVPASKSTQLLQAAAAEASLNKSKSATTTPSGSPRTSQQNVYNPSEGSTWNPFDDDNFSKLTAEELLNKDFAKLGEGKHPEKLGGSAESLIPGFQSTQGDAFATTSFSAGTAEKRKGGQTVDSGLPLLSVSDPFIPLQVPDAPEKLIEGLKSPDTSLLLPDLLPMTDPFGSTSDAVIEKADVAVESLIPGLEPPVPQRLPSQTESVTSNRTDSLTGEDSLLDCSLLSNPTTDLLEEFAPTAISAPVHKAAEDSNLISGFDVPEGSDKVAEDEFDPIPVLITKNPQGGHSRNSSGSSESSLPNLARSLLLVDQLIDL
Assay: AAK1 Kinase Assay
Assay type: biochemical
Conditions: ATP 22 μM; IC50 ranges
Description: The assays were performed in U-bottom 384-well plates. The final assay volume was 30 μl prepared from 15 μl additions of enzyme and substrates (fluoresceinated peptide (5-FAM)-Aha-[…]-NH2 and ATP) and test compounds in assay buffer (10 mM Tris-HCL pH 7.4, 10 mM MgCl2, 0.01% Tween-20 and 1.0 mM DTT). The reactions were initiated by the combination of bacterially expressed, GST-Xa-hAAK1 with substrates and test compounds. The reactions were incubated at room temperature for 3 hours and terminated by adding 60 μl of 35 mM EDTA buffer to each sample. The reactions were analyzed on the Caliper LabChip 3000 (Caliper, Hopkinton, Mass.) by electrophoretic separation of the fluorescent substrate and phosphorylated product. […] The final concentration of reagents in the assays are ATP, 22 μM; (5-FAM)-Aha-[…]-NH2, 1.5 μM; GST-Xa-hAAK1, 3.5 nM; and DMSO, 1.6%. Dose response curves were generated to determine the concentration required inhibiting 50% of kinase activity (IC50). Compounds were dissolved at 10 mM in dimethylsulfoxide (DMSO) and evaluated at eleven concentrations. IC50 values were derived by non-linear regression analysis.

**Q.** `COC(=O)Nc1cc2c(cn1)COc1cc(OCC(C)(N)CC(C)C)ccc1-2` (racemic) [Example 60, methyl (8-((2-amino-2,4-dimethylpentyl)oxy)-5H-chromeno[3,4-c]pyridin-2-yl)carbamate] was tested. Which IC50 did it give?
**A.** Its IC50 is 1 to 10 nM.

**Q.** How did the IC50 turn out when `CC(=O)Nc1cc2c(cn1)COc1c-2ccc(OCC(C)(N)CC(C)C)c1OC(F)F` (racemic) [Example 65, N-(8-((2-amino-2,4-dimethylpentyl)oxy)-7-(difluoromethoxy)-5H-chromeno[3,4-c]pyridin-2-yl)acetamide] was run?
**A.** The IC50 was < 1 nM.

**Q.** How did the IC50 turn out when `COc1c(OCC(C)(N)CC(C)C)ccc2c1OCc1cnc(NC(C)=O)cc1-2` (racemic) [Example 66, N-(8-((2-amino-2,4-dimethylpentyl)oxy)-7-methoxy-5H-chromeno[3,4-c]pyridin-2-yl)acetamide] was run?
**A.** The IC50 was < 1 nM.

**Q.** With `COC(=O)Nc1cc2c(cn1)COc1c-2ccc(OC[C@@](C)(N)CC(C)C)c1C#N` [Example 80, (S)-methyl (8-((2-amino-2,4-dimethylpentyl)oxy)-7-cyano-5H-chromeno[3,4-c]pyridin-2-yl)carbamate] as the compound, how does the IC50 read?
**A.** The IC50 was < 1 nM.

**Q.** Which IC50 does the source give for `COC(=O)Nc1cc2c(cn1)COc1cc(OC[C@@](C)(N)CC(C)C)c(Cl)cc1-2` [Example 83, (S)-methyl (8-((2-amino-2,4-dimethylpentyl)oxy)-9-chloro-5H-chromeno[3,4-c]pyridin-2-yl)carbamate] here?
**A.** The IC50 was 1 to 10 nM.

**Q.** With `COC(=O)Nc1cc2c(cn1)COc1c-2ccc(OC[C@@H](N)CC(C)C)c1C#N` [Example 84, (S)-methyl (8-((2-amino-4-methylpentyl)oxy)-7-cyano-5H-chromeno[3,4-c]pyridin-2-yl)carbamate] as the compound, how does the IC50 read?
**A.** The IC50 was 1 to 10 nM.

**Q.** How did the IC50 turn out when `COc1c(OC[C@@](C)(N)CC(C)C)ccc2c1OCc1cnc(NC(C)=O)cc1-2` [Example 85, (S)—N-(8-((2-amino-2,4-dimethylpentyl)oxy)-7-methoxy-5H-chromeno[3,4-c]pyridin-2-yl)acetamide] was run?
**A.** The IC50 was < 1 nM.

**Q.** With `CC(=O)Nc1cc2c(cn1)COc1c-2ccc(OC[C@@](C)(N)CC(C)C)c1OC(F)F` [Example 87, (S)—N-(8-((2-amino-2,4-dimethylpentyl)oxy)-7-(difluoromethoxy)-5H-chromeno[3,4-c]pyridin-2-yl)acetamide] as the compound, how does the IC50 read?
**A.** Its IC50 is < 1 nM.

**Q.** How did the IC50 turn out when `CC(C)C[C@](C)(N)COc1ccc2c(c1Cl)OCc1cnc(N)cc1-2` [Example 88, (S)-8-((2-amino-2,4-dimethylpentyl)oxy)-7-chloro-5H-chromeno[3,4-c]pyridin-2-amine] was run?
**A.** Its IC50 is < 1 nM.

**Q.** For `COC(=O)Nc1cc2c(cn1)COc1c-2ccc(OC[C@@](C)(N)CC(C)C)c1OC(F)F` [Example 89, (S)-methyl (8-((2-amino-2,4-dimethylpentyl)oxy)-7-(difluoromethoxy)-5H-chromeno[3,4-c]pyridin-2-yl)carbamate], which IC50 is on record?
**A.** Its IC50 is < 1 nM.

**Q.** How did the IC50 turn out when `CC(C)C[C@](C)(N)COc1ccc2c(c1)OCc1cnc(N)cc1-2` [Example 90, (S)-8-((2-amino-2,4-dimethylpentyl)oxy)-5H-chromeno[3,4-c]pyridin-2-amine] was run?
**A.** Its IC50 is 1 to 10 nM.

**Q.** Which IC50 does the source give for `CC(=O)Nc1cc2c(cn1)COc1c-2ccc(OC[C@@](C)(N)CC(C)C)c1Cl` [Example 91, (S)—N-(8-((2-amino-2,4-dimethylpentyl)oxy)-7-chloro-5H-chromeno[3,4-c]pyridin-2-yl)acetamide] here?
**A.** The IC50 was < 1 nM.

**Q.** `COC(=O)Nc1cc2c(cn1)COc1c-2ccc(OC[C@@](C)(N)CC(C)C)c1Cl` [Example 92, (S)-methyl (8-((2-amino-2,4-dimethylpentyl)oxy)-7-chloro-5H-chromeno[3,4-c]pyridin-2-yl)carbamate] was tested. Which IC50 did it give?
**A.** The IC50 was 1 to 10 nM.

**Q.** Which IC50 does the source give for `[2H]C1([2H])Oc2cc(OC[C@@](C)(N)CC(C)C)ccc2-c2cc(NC(=O)OC)ncc21` [Example 97, (S)-methyl (8-((2-amino-2,4-dimethylpentyl)oxy)-5,5-deutero-5H-chromeno[3,4-c]pyridin-2-yl)carbamate] here?
**A.** Its IC50 is 1 to 10 nM.

**Q.** With `CC(=O)Nc1cc2c(cn1)COc1cc(OC[C@@](C)(N)CC(C)C)cc(F)c1-2` [Example 98, (S)—N-(8-((2-amino-2,4-dimethylpentyl)oxy)-10-fluoro-5H-chromeno[3,4-c]pyridin-2-yl)acetamide] as the compound, how does the IC50 read?
**A.** Its IC50 is 1 to 10 nM.

**Q.** Which IC50 does the source give for `CC(C)C[C@](C)(N)COc1cc(F)c2c(c1)OCc1cnc(N)cc1-2` [Example 99, (S)-8-((2-amino-2,4-dimethylpentyl)oxy)-10-fluoro-5H-chromeno[3,4-c]pyridin-2-amine] here?
**A.** Its IC50 is 1 to 10 nM.

**Q.** `CC(=O)Nc1cc2c(cn1)COc1cc(OC[C@H](CC(C)C)NC(C)=O)ccc1-2` [Example 100, (S)—N-(8-((2-acetamido-4-methylpentyl)oxy)-5H-chromeno[3,4-c]pyridin-2-yl)acetamide] was tested. Which IC50 did it give?
**A.** The IC50 was 100 to 1200 nM.

**Q.** For `CC(=O)Nc1cc2c(cn1)COc1cc(OC[C@H](CC(C)C)NS(C)(=O)=O)ccc1-2` [Example 101, (S)—N-(8-((4-methyl-2-(methylsulfonamido)pentyl)oxy)-5H-chromeno[3,4-c]pyridin-2-yl)acetamide], which IC50 is on record?
**A.** Its IC50 is 10 to 100 nM.

**Q.** With `Cc1cc2c(cn1)c(=O)oc1cc(OC[C@@](C)(N)CC(C)C)c(Cl)cc12` [Example 103, (S)-8-((2-amino-2,4-dimethylpentyl)oxy)-9-chloro-2-methyl-5H-chromeno[3,4-c]pyridin-5-one] as the compound, how does the IC50 read?
**A.** The IC50 was 100 to 1200 nM.

Same assay, conditions: ATP 22 μM; numeric values

**Q.** `COC(=O)Nc1cc2c(cn1)COc1c-2ccc(OC[C@@](C)(N)CC(C)C)c1OC` [Example 86, (S)-methyl (8-((2-amino-2,4-dimethylpentyl)oxy)-7-methoxy-5H-chromeno[3,4-c]pyridin-2-yl)carbamate] was tested. Which IC50 did it give?
**A.** Its IC50 is 0.39 nM.

**Q.** How did the IC50 turn out when `CCOC(=O)Nc1cc2c(cn1)COc1c-2ccc(OC[C@@](C)(N)CC(C)C)c1Cl` [Example 93, (S)-ethyl (8-((2-amino-2,4-dimethylpentyl)oxy)-7-chloro-5H-chromeno[3,4-c]pyridin-2-yl)carbamate] was run?
**A.** The IC50 was 0.89 nM.

**Q.** `COC(=O)Nc1cc2c(cn1)COc1cc(OC[C@@](C)(N)CC(C)C)c(F)cc1-2` [Example 95, (S)-methyl (8-((2-amino-2,4-dimethylpentyl)oxy)-9-fluoro-5H-chromeno[3,4-c]pyridin-2-yl)carbamate] was tested. Which IC50 did it give?
**A.** The IC50 was 2.1 nM.

**Q.** `Cc1cc2c(cn1)c(=O)oc1cc(OC[C@@](C)(N)CC(C)C)ccc12` [Example 102, (S)-8-((2-amino-2,4-dimethylpentyl)oxy)-2-methyl-5H-chromeno[3,4-c]pyridin-5-one] was tested. Which IC50 did it give?
**A.** The IC50 was 556 nM.

Reference: US20160222021A1, “ARYL ETHER-BASE KINASE INHIBITORS” (BRISTOL-MYERS SQUIBB COMPANY, priority 2013, published 2016)
